Legend:
Type in all cases: in vivo, rat
Sprague Dawley rats = experiment: Morphine-induced locomotor sensitization; details: 100 mg/kg orally two hours before morphine 10 mg/kg i.p.
Source text: 2) Effects on Morphine-Induced Locomotor Sensitization
Repeated administration of psychostimulants or opiates across various species including rodents causes the development of “reverse tolerance” known as sensitization. The term sensitization refers to an increase in a response (here locomotion) after the repeated occurrence of the stimulus (drug administration) that promoted the aforementioned response. The increased sensitivity to the locomotor stimulating effect of such drugs (behavioural sensitization) is believed to be relevant to the psychopathology, neurotoxicity, addiction and to the craving that develop in humans abusing psychostimulants or opiates [Vanderschuren L J M J et al., in Self D W, Staley J K (eds.) “Behavioral Neuroscience of Drug Addiction”, Current Topics in Behavioral Neurosciences 3 (2009), 179-195].
Sensitization to the locomotor effects of drugs of abuse is believed to reflect sensitization to the rewarding effects of these agents. For instance, previous drug experience has been reported to increase the probability that animals will self-administer the drug later on. […]
16 male Sprague Dawley rats were injected with morphine (10 mg/kg i.p.) and placed immediately afterwards in an open field arena for 45 min. Total distance moved (in cm) was recorded via video-tracking. […]

Wistar Rats = experiment: Social stress-induced hyperthermia and tachycardia; details: 100 mg/kg orally two hours before one hour social interaction stress
Source text: 3) Effects on Social Stress-Induced Hyperthermia and Tachycardia
Exposure to both physiological and psychological stress in mammals leads to an elevation of core body temperature and heart rate referred to as stress-induced hyperthermia (SIH) and stress-induced tachycardia (SIT).
The SIH/SIT response can be observed in humans equally well as in rodents providing excellent animal to human translational possibilities.
12 male Wistar rats were implanted intraperitoneally with transmitters that allowed the simultaneous recording of body temperature (in degrees Celsius) [FIG. 2 A)] and heart rate (in beats per minute) [FIG. 2 B)] via external receivers. Rats were treated orally with 100 mg/kg of compound of example 26 two hours before exposure to an one hour-lasting social interaction stress. Columns 1 and 2 show the effect on body temperature [FIG. 2 A)], respectively heart rate [FIG. 2 B)], after vehicle (1) or drug (2) treatment without exposure to stress; columns 3 and 4 show the effect with exposure to stress after vehicle (3) or drug (4) treatment.

F344 rats = experiment: Fear-potentiated startle and forepaw grip strength; details: 100 and 300 mg/kg p.o.
Source text: 4) Effects of Compound of Example 26 on Fear-Potentiated Startle
The fear-potentiated startle (FPS) paradigm is a model of conditioned fear [Fendt M et al., Neuroscience Biobehav Rev. 1999, 23, 743-760]. Rats can be trained to associate an initially neutral, soon-to-be conditioned stimulus (CS; e.g., light) with an aversive, unconditioned stimulus (US; e.g., foot shock). When tested after training for their startle reflex response to brief (ms) noise bursts in the absence (no-CS) vs. the presence of the CS, rats generally show greater startle amplitudes during the presence of the CS which now serves as a predictor of shock. In humans a similar training procedure can be implemented and a FPS response can also be evoked in the presence of a shock-predicting CS.
Conditioned fear models including FPS mimic in particular the response to specific threats. […] Rather the compound may reduce those startle reactions as a consequence of reduced fear of the shock-context or reduced fear of the slightly aversive startle-eliciting noise pulses per se.
Male F344 rats were trained for two consecutive days (conditioning phase) to associate a light-stimulus with a foot shock. On the following day they were tested for their response to startle-eliciting noise stimuli which were delivered randomly under light (CS) or dark (no-CS) conditions. Two hours before the test rats were treated with one dose of compound of example 26 (0, 30, 100, 300 mg/kg p.o.). Average startle responses under light (CS) [FIG. 3 A)] and dark conditions (no-CS) [FIG. 3 B)] during the test day were measured and recorded as an electric signal (in mV). Following startle testing, rats underwent an additional forepaw grip strength (in g) [FIG. 3 C)] test to control for potential myorelaxant effects of the compound (dosed at 0, 30, 100, 300 mg/kg p.o.).

SMILES: COc1ccc(S(=O)(=O)N2CCC[C@H]2C(=O)Nc2cc(C)cc(C)c2)cc1 [Example 26, (S)-1-(4-Methoxy-benzenesulfonyl)-pyrrolidine-2-carboxylic acid (3,5-dimethyl-phenyl)-amide]
- locomotor sensitization in response to the 5th injection of morphine (Sprague Dawley rats): completely abolished
- social stress-induced hyperthermia (Wistar Rats): significantly attenuated
- social stress-induced tachycardia (Wistar Rats): significantly attenuated
- forepaw grip strength (myorelaxant effects) (F344 rats): without affecting
- fear-potentiated startle response under CS conditions (F344 rats; two hours before test): significantly reduced
- startle response under no-CS conditions (F344 rats; two hours before test): significantly reduced
